Results published in patent US20230398130A1, “METHODS AND COMPOSITIONS FOR DIFFERENTIATING STEM CELLS” (Massachusetts Institute of Technology, priority 2020, published 2023).
Where a name gives a salt, the structure may show the parent alone.

Tested on: ISC-enriched organoids
Test: Primary screen, 384-well 2.5-D organoid differentiation (ENR+CD, 6 days, Target Selective Inhibitor Library, vs whole-plate median): ATP (CellTiter-Glo 3D, CTG)
Conditions: standard z score of FC

With `Cc1ccccc1C(C(=O)NC1CCCCC1)N(C(=O)Cn1ccnc1C)c1cccc(F)c1` (centres unmarked) [AGI-5198] the Z.CTG (primary screen, dose 0.08 uM) was 0.738, the Z.CTG (primary screen, dose 0.40 uM) was 0.368 and the Z.CTG (primary screen, dose 2.00 uM) was 0.671. It also gave a Z.CTG (primary screen, dose 10.00 uM) of 0.802.

Work on `CC(=O)Nc1nc2c(Oc3cc(-c4ccc(C(F)(F)F)cc4)ncn3)cccc2s1` [AMG-517] yielded a Z.CTG (primary screen, dose 0.08 uM) of 0.385, a Z.CTG (primary screen, dose 0.40 uM) of 0.269 and a Z.CTG (primary screen, dose 2.00 uM) of 0.268. It also gave a Z.CTG (primary screen, dose 10.00 uM) of 0.135.

In the case of `COc1cc(N2CCC(N3CCN(C)CC3)CC2)ccc1Nc1ncc(Cl)c(Nc2ccccc2P(C)(C)=O)n1` [AP26113], the Z.CTG (primary screen, dose 0.08 uM) was −0.130, the Z.CTG (primary screen, dose 0.40 uM) was 0.145 and the Z.CTG (primary screen, dose 2.00 uM) was −1.333. It also gave a Z.CTG (primary screen, dose 10.00 uM) of −4.012.

`NC(=O)c1ncn([C@@H]2O[C@H](CO)[C@@H](O)[C@H]2O)c1N` [Acadesine] was tested, and the Z.CTG (primary screen, dose 0.08 uM) was 0.225, the Z.CTG (primary screen, dose 0.40 uM) was 0.413 and the Z.CTG (primary screen, dose 2.00 uM) was −0.012. The Z.CTG (primary screen, dose 10.00 uM) was 0.182.

`COc1ccc2cccc(CCNC(C)=O)c2c1` [Agomelatine] showed a Z.CTG (primary screen, dose 0.08 uM) of 0.252, a Z.CTG (primary screen, dose 0.40 uM) of 0.193 and a Z.CTG (primary screen, dose 2.00 uM) of −0.472. For the same compound, the Z.CTG (primary screen, dose 10.00 uM) was 0.056.

Work on `Oc1ncnc2[nH]ncc12` [Allopurinol] yielded a Z.CTG (primary screen, dose 0.08 uM) of 0.506, a Z.CTG (primary screen, dose 0.40 uM) of −0.234 and a Z.CTG (primary screen, dose 2.00 uM) of −0.387. It also gave a Z.CTG (primary screen, dose 10.00 uM) of −1.085.

`CCOC(=O)[C@H]1O[C@@H]1C(=O)N[C@@H](CC(C)C)C(=O)NCCC(C)C` [Aloxistatin] showed a Z.CTG (primary screen, dose 0.08 uM) of −0.015, a Z.CTG (primary screen, dose 0.40 uM) of −0.014 and a Z.CTG (primary screen, dose 2.00 uM) of −0.308. The Z.CTG (primary screen, dose 10.00 uM) was −0.511.

With `CCOC(=O)C1=C(COCCN)NC(C)=C(C(=O)OC)C1c1ccccc1Cl` (centres unmarked) [Amlodipine] the Z.CTG (primary screen, dose 0.08 uM) was −0.837, the Z.CTG (primary screen, dose 0.40 uM) was −0.866 and the Z.CTG (primary screen, dose 2.00 uM) was −0.888. For the same compound, the Z.CTG (primary screen, dose 10.00 uM) was −1.006.

For `COc1ccc(C(=O)N2CCCC2=O)cc1` [Aniracetam], the Z.CTG (primary screen, dose 0.08 uM) was −0.211, the Z.CTG (primary screen, dose 0.40 uM) was 0.267 and the Z.CTG (primary screen, dose 2.00 uM) was 0.130. For the same compound, the Z.CTG (primary screen, dose 10.00 uM) was 0.045.

With `N#CC1(c2ccc(NC(=O)c3cccnc3NCc3ccncc3)cc2)CCCC1` [Apatinib] the Z.CTG (primary screen, dose 0.08 uM) was 0.532, the Z.CTG (primary screen, dose 0.40 uM) was 0.722 and the Z.CTG (primary screen, dose 2.00 uM) was 0.645. For the same compound, the Z.CTG (primary screen, dose 10.00 uM) was 0.520.

Compound `O=c1cc(-c2ccc(O)cc2)oc2cc(O)cc(O)c12` [Apigenin] has a Z.CTG (primary screen, dose 0.08 uM) of 0.588, a Z.CTG (primary screen, dose 0.40 uM) of 0.510 and a Z.CTG (primary screen, dose 2.00 uM) of 0.753. For the same compound, the Z.CTG (primary screen, dose 10.00 uM) was 0.063.

With `COc1ccc(-n2nc(C(N)=O)c3c2C(=O)N(c2ccc(N4CCCCC4=O)cc2)CC3)cc1` [Apixaban] the Z.CTG (primary screen, dose 0.08 uM) was −0.212, the Z.CTG (primary screen, dose 0.40 uM) was 0.266 and the Z.CTG (primary screen, dose 2.00 uM) was −0.144. It also gave a Z.CTG (primary screen, dose 10.00 uM) of −0.185.

Compound `C[C@@H](O[C@H]1OCCN(Cc2n[nH]c(=O)[nH]2)[C@H]1c1ccc(F)cc1)c1cc(C(F)(F)F)cc(C(F)(F)F)c1` [Aprepitant] has a Z.CTG (primary screen, dose 0.08 uM) of 0.747, a Z.CTG (primary screen, dose 0.40 uM) of 0.962 and a Z.CTG (primary screen, dose 2.00 uM) of 0.346. For the same compound, the Z.CTG (primary screen, dose 10.00 uM) was 0.121.

In the case of `CC[C@@H]1C(=O)N(C)c2cnc(Nc3ccc(C(=O)NC4CCN(C)CC4)cc3OC)nc2N1C1CCCC1` [BI 2536], the Z.CTG (primary screen, dose 0.08 uM) was 0.069, the Z.CTG (primary screen, dose 0.40 uM) was −1.275 and the Z.CTG (primary screen, dose 2.00 uM) was −1.220. For the same compound, the Z.CTG (primary screen, dose 10.00 uM) was −2.455.

`Cn1c(N2CCCCS2(=O)=O)nc(C(=O)NCc2ccc(F)cc2)c(O)c1=O` [BMS-707035] gave a Z.CTG (primary screen, dose 0.08 uM) of 0.759, a Z.CTG (primary screen, dose 0.40 uM) of 0.568 and a Z.CTG (primary screen, dose 2.00 uM) of 0.667. For the same compound, the Z.CTG (primary screen, dose 10.00 uM) was 0.330.

`Cc1c(-c2ccc(O)cc2)n(Cc2ccc(OCCN3CCCCCC3)cc2)c2ccc(O)cc12` [Bazedoxifene HCl] gave a Z.CTG (primary screen, dose 0.08 uM) of 1.009, a Z.CTG (primary screen, dose 0.40 uM) of 0.873 and a Z.CTG (primary screen, dose 2.00 uM) of −1.862. The Z.CTG (primary screen, dose 10.00 uM) was −2.741.

`COc1c(O)cc2c(c1O)[C@@H]1O[C@H](CO)[C@@H](O)[C@H](O)[C@H]1OC2=O` [Bergenin] showed a Z.CTG (primary screen, dose 0.08 uM) of 0.687, a Z.CTG (primary screen, dose 0.40 uM) of 0.585 and a Z.CTG (primary screen, dose 2.00 uM) of 0.491. For the same compound, the Z.CTG (primary screen, dose 10.00 uM) was 0.821.

`CC[C@H](NC(=O)[C@H](C)NC)C(=O)N1C[C@@H](O)C[C@H]1Cc1c(-c2[nH]c3cc(F)ccc3c2C[C@@H]2C[C@H](O)CN2C(=O)[C@H](CC)NC(=O)[C@H](C)NC)[nH]c2cc(F)ccc12` [Birinapant] showed a Z.CTG (primary screen, dose 0.08 uM) of −0.615, a Z.CTG (primary screen, dose 0.40 uM) of 0.226 and a Z.CTG (primary screen, dose 2.00 uM) of 0.542. It also gave a Z.CTG (primary screen, dose 10.00 uM) of 0.293.

Work on `CC(C)NCC(O)COc1ccc(COCCOC(C)C)cc1` (centres unmarked) [Bisoprolol fumarate] yielded a Z.CTG (primary screen, dose 0.08 uM) of −0.249, a Z.CTG (primary screen, dose 0.40 uM) of −0.136 and a Z.CTG (primary screen, dose 2.00 uM) of −0.048. The Z.CTG (primary screen, dose 10.00 uM) was 0.139.

`COc1ccccc1Oc1c(NS(=O)(=O)c2ccc(C(C)(C)C)cc2)nc(-c2ncccn2)nc1OCCO` [Bosentan Hydrate] was tested, and the Z.CTG (primary screen, dose 0.08 uM) was 0.487, the Z.CTG (primary screen, dose 0.40 uM) was 0.495 and the Z.CTG (primary screen, dose 2.00 uM) was 0.288. For the same compound, the Z.CTG (primary screen, dose 10.00 uM) was 0.204.

Compound `CCN[C@H]1CN(CCCOC)S(=O)(=O)c2sc(S(N)(=O)=O)cc21` [Brinzolamide] has a Z.CTG (primary screen, dose 0.08 uM) of −0.017 and a Z.CTG (primary screen, dose 2.00 uM) of 0.282.

Compound `CCCCN1CCCCC1C(=O)Nc1c(C)cccc1C` (centres unmarked) [Bupivacaine HCl] has a Z.CTG (Dose 10.00 uM) of −0.870, a Z.CTG (primary screen, dose 0.08 uM) of −0.008 and a Z.CTG (primary screen, dose 0.40 uM) of −0.517. For the same compound, the Z.CTG (primary screen, dose 2.00 uM) was −0.717.

With `CCNC(=O)[C@H]1O[C@@H](n2cnc3c(N)nc(NCCc4ccc(CCC(=O)O)cc4)nc32)[C@H](O)[C@@H]1O` [CGS 21680 HCl] the Z.CTG (Dose 0.08 uM) was 0.724, the Z.CTG (Dose 0.40 uM) was 1.049 and the Z.CTG (Dose 2.00 uM) was 0.799. For the same compound, the Z.CTG (Dose 10.00 uM) was −3.328.

For `COCCOc1ccc2c(c1)ncn2-c1ccc2cccc(N3CCC(N)CC3)c2n1` [CP-673451], the Z.CTG (Dose 0.08 uM) was 0.166, the Z.CTG (Dose 0.40 uM) was 0.445 and the Z.CTG (Dose 2.00 uM) was 0.018. The Z.CTG (Dose 10.00 uM) was −0.616.

Work on `O=C(/C=C/c1ccc(O)c(O)c1)OCCc1ccccc1` [Caffeic Acid Phenethyl Ester] yielded a Z.CTG (Dose 0.08 uM) of 0.627, a Z.CTG (Dose 0.40 uM) of −0.026 and a Z.CTG (Dose 2.00 uM) of −0.152. It also gave a Z.CTG (Dose 10.00 uM) of −1.221.

Work on `C[C@H](CS)C(=O)N1CCC[C@H]1C(=O)O` [Captopril] yielded a Z.CTG (Dose 0.08 uM) of −0.134, a Z.CTG (Dose 0.40 uM) of 0.257 and a Z.CTG (Dose 2.00 uM) of 0.294. For the same compound, the Z.CTG (Dose 10.00 uM) was 0.255.

`COc1ccccc1OCCNCC(O)COc1cccc2[nH]c3ccccc3c12` (centres unmarked) [Carvedilol] was tested, and the Z.CTG (Dose 0.08 uM) was 0.136, the Z.CTG (Dose 0.40 uM) was −0.034 and the Z.CTG (Dose 2.00 uM) was −0.360. It also gave a Z.CTG (Dose 10.00 uM) of −0.577.

In the case of `Cc1ccc(-c2cc(C(F)(F)F)nn2-c2ccc(S(N)(=O)=O)cc2)cc1` [Celecoxib], the Z.CTG (Dose 0.08 uM) was −0.082, the Z.CTG (Dose 0.40 uM) was −0.714 and the Z.CTG (Dose 2.00 uM) was −0.282. For the same compound, the Z.CTG (Dose 10.00 uM) was −0.306.

In the case of `COc1ccc([C@]2(C#N)CC[C@@H](C(=O)O)CC2)cc1OC1CCCC1` [Cilomilast], the Z.CTG (Dose 0.08 uM) was −0.799, the Z.CTG (Dose 0.40 uM) was −0.807 and the Z.CTG (Dose 2.00 uM) was −0.562. For the same compound, the Z.CTG (Dose 10.00 uM) was −0.458.

`C[C@@H](NCCCc1cccc(C(F)(F)F)c1)c1cccc2ccccc12` [Cinacalcet HCl] was tested, and the Z.CTG (Dose 0.08 uM) was −1.061, the Z.CTG (Dose 0.40 uM) was −0.712 and the Z.CTG (Dose 2.00 uM) was −0.028. The Z.CTG (Dose 10.00 uM) was −1.076.

`C=C1C(=O)O[C@@H]2/C=C(\C)CC/C=C(\C)CC[C@@H]12` [Costunolide] was tested, and the Z.CTG (Dose 0.08 uM) was −0.070, the Z.CTG (Dose 0.40 uM) was 0.288 and the Z.CTG (Dose 2.00 uM) was 0.120. It also gave a Z.CTG (Dose 10.00 uM) of 0.019.

Compound `CC(=O)O[C@]1(C(C)=O)CC[C@H]2[C@@H]3C=C(Cl)C4=CC(=O)[C@@H]5C[C@@H]5[C@]4(C)[C@H]3CC[C@@]21C` [Cyproterone Acetate] has a Z.CTG (Dose 0.08 uM) of −0.263, a Z.CTG (Dose 0.40 uM) of 0.122 and a Z.CTG (Dose 2.00 uM) of −0.341. For the same compound, the Z.CTG (Dose 10.00 uM) was −0.414.

`COc1cc2nc(N3CCN(C(=O)C4COc5ccccc5O4)CC3)nc(N)c2cc1OC` (centres unmarked) [Doxazosin Mesylate] was tested, and the Z.CTG (Dose 0.08 uM) was 0.171, the Z.CTG (Dose 0.40 uM) was −0.037 and the Z.CTG (Dose 2.00 uM) was 0.349. For the same compound, the Z.CTG (Dose 10.00 uM) was 0.179.

`O=C(N/N=C/c1ccc(O)c(O)c1)c1cc2ccccc2cc1O` [Dynasore] gave a Z.CTG (Dose 0.08 uM) of −0.592, a Z.CTG (Dose 0.40 uM) of −0.604 and a Z.CTG (Dose 2.00 uM) of −0.364. For the same compound, the Z.CTG (Dose 10.00 uM) was −0.026.
